# Experimental data published in patent US20090092631A1, “GLYCOSYLATED SPECIFICITY EXCHANGERS THAT INDUCE AN ANTIBODY DEPENDENT CELLULAR CYTOTOXICITY (ADCC) RESPONSE” (priority 2007, published 2009).
# Test system: human Gal-alpha1,3-Gal-specific antibodies
# Test: Glycosylated peptide competitive assay on Gal-BSA coated plates with human sera IB72
# Format: binding
# Conditions: mixed with human sera, positive control
# Procedure: To further evaluate the ability of the glycosylated specificity exchangers to bind to a pathogen, a glycosylated peptide competitive assay was performed using the most reactive human sera (IB72). In brief, Gal-alpha-1,3-Gal-labeled bovine serum albumin (Gal-BSA) was coated onto 96-well microplates in sodium carbonate buffer (pH: 9.6) at +4° C. overnight. Dilutions of human sera and dilutions of glyco-peptides (glycosylated HIV-specific ligand/receptor specificity exchangers or Gal-BSA) or non-glycosylated peptides (HIV-specific ligand/receptor specificity exchangers or BSA) were preincubated in phosphate-buffered saline (PBS) containing 1% bovine albumin, 2% goat serum and 0.05% Tween 20 at 37° C. for 1 h. The mixture was then added to the coated plates and incubated at 37° C. for 1 h, then washed 3 times with phosphate-buffered saline (PBS) containing 0.05% Tween 20 (pH: 7.4).
# Bound antibodies were indicated with goat anti-human polyvalent Ig, conjugated with alkaline phosphatase. The plates were incubated and washed as described above. Plates were developed with phosphatase substrate at room temperature for 30 min, stopped with 1 M NaOH. Optical density (OD) at 405 nm/650 nm was determined to quantify the inhibition. […] Thus, specificity exchangers that bind Gal-alpha1,3-Gal-specific antibodies had been generated. […]
substance,measurement,value
"Gal-alpha-1,3-Gal-labeled bovine serum albumin [Gal-BSA]",inhibition of human antibody binding to Gal-BSA,100%
